Measured values taken from the supplement of paper PMC10307832.

How the values were obtained:
Assay in all cases: relative viability (nuclei count vs DMSO), 5 days (fraction); higher = more cells survive
[1] = compound: COc1cc(Nc2c(C#N)cnc3cc(OCCCN4CCN(C)CC4)c(OC)cc23)c(Cl)cc1Cl [Bosutinib] + CC1(C)CCC(c2ccc(Cl)cc2)=C(CN2CCN(c3ccc(C(=O)NS(=O)(=O)c4ccc(N[C@H](CCN5CCOCC5)CSc5ccccc5)c(S(=O)(=O)C(F)(F)F)c4)cc3)CC2)C1 [Navitoclax] (partner 0.5 µM)
How it was run: (§1)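 Medians of duplicate plates are given as relative viability. That measure is the nuclei count in treated wells divided by the count in vehicle wells. Counts were taken on 4× images of lung cancer cell lines in 1536-well plates, 5 days after pin-tool dosing the day after seeding with one drug alone or a fixed anchor-drug dose plus five library-drug doses (not always all listed) in √10 steps.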

[2] = compound: COc1cc(Nc2c(C#N)cnc3cc(OCCCN4CCN(C)CC4)c(OC)cc23)c(Cl)cc1Cl [Bosutinib] + COc1cc2c(Oc3ccc(NC(=O)C4(C(=O)Nc5ccc(F)cc5)CC4)cc3F)ccnc2cc1OCCCN1CCOCC1 [Foretinib] (partner 0.25 µM)
How it was run: as §1

[3] = compound: COc1cc(Nc2c(C#N)cnc3cc(OCCCN4CCN(C)CC4)c(OC)cc23)c(Cl)cc1Cl [Bosutinib] + O=C(c1cc(Cc2n[nH]c(=O)c3ccccc23)ccc1F)N1CCN(C(=O)C2CC2)CC1 [Olaparib] (partner 8 µM)
How it was run: as §1

[4] = compound: COc1cc(Nc2c(C#N)cnc3cc(OCCCN4CCN(C)CC4)c(OC)cc23)c(Cl)cc1Cl [Bosutinib] + Nc1ncn([C@H]2C[C@H](O)[C@@H](CO)O2)c(=O)n1 [Decitabine] (partner 2 µM)
How it was run: as §1

[5] = compound: COc1cc(Nc2c(C#N)cnc3cc(OCCCN4CCN(C)CC4)c(OC)cc23)c(Cl)cc1Cl [Bosutinib] + Cc1nc(Nc2ncc(C(=O)Nc3c(C)cccc3Cl)s2)cc(N2CCN(CCO)CC2)n1 [Dasatinib] (partner 0.075 µM)
How it was run: as §1

Cell Line: NCI-H2126
- relative viability ([1]; first compound 0.01 µM): 0.797
- relative viability ([1]; first compound 0.03162 µM): 0.904
- relative viability ([1]; first compound 0.1 µM): 0.85
- relative viability ([1]; first compound 1 µM): 0.776
- relative viability ([2]; first compound 0.01 µM): 1.08
- relative viability ([2]; first compound 0.03162 µM): 1.12
- relative viability ([2]; first compound 0.1 µM): 1.25
- relative viability ([2]; first compound 1 µM): 1.14
- relative viability ([3]; first compound 0.01 µM): 0.892
- relative viability ([3]; first compound 0.03162 µM): 0.885
- relative viability ([3]; first compound 0.1 µM): 0.916
- relative viability ([3]; first compound 1 µM): 0.936
- relative viability ([4]; first compound 0.01 µM): 0.548
- relative viability ([4]; first compound 0.03162 µM): 0.537
- relative viability ([4]; first compound 0.1 µM): 0.609
- relative viability ([4]; first compound 1 µM): 0.588
- relative viability ([5]; first compound 0.01 µM): 0.583
- relative viability ([5]; first compound 0.03162 µM): 0.571
- relative viability ([5]; first compound 0.1 µM): 0.594
- relative viability ([5]; first compound 1 µM): 0.62

Cell Line: 201T
- relative viability ([1]; first compound 0.01 µM): 1.2
- relative viability ([1]; first compound 0.03162 µM): 1.2
- relative viability ([1]; first compound 0.1 µM): 1.2
- relative viability ([1]; first compound 1 µM): 1.14
- relative viability ([2]; first compound 0.01 µM): 1.08
- relative viability ([2]; first compound 0.03162 µM): 1.06
- relative viability ([2]; first compound 0.1 µM): 0.991
- relative viability ([2]; first compound 1 µM): 0.548
- relative viability ([3]; first compound 0.01 µM): 0.829
- relative viability ([3]; first compound 0.03162 µM): 0.884
- relative viability ([3]; first compound 0.1 µM): 0.888
- relative viability ([3]; first compound 1 µM): 0.76
- relative viability ([4]; first compound 0.01 µM): 0.892
- relative viability ([4]; first compound 0.03162 µM): 0.874
- relative viability ([4]; first compound 0.1 µM): 0.848
- relative viability ([4]; first compound 1 µM): 0.821
- relative viability ([5]; first compound 0.01 µM): 0.612
- relative viability ([5]; first compound 0.03162 µM): 0.571
- relative viability ([5]; first compound 0.1 µM): 0.57
- relative viability ([5]; first compound 1 µM): 0.544

Cell Line: NCI-H1915
- relative viability ([1]; first compound 0.01 µM): 0.802
- relative viability ([1]; first compound 0.03162 µM): 0.824
- relative viability ([1]; first compound 0.1 µM): 0.823
- relative viability ([1]; first compound 1 µM): 0.81
- relative viability ([2]; first compound 0.01 µM): 1.07
- relative viability ([2]; first compound 0.03162 µM): 1.1
- relative viability ([2]; first compound 0.1 µM): 1.11
- relative viability ([2]; first compound 1 µM): 1.11
- relative viability ([3]; first compound 0.01 µM): 0.259
- relative viability ([3]; first compound 0.03162 µM): 0.256
- relative viability ([3]; first compound 0.1 µM): 0.258
- relative viability ([3]; first compound 1 µM): 0.26
- relative viability ([4]; first compound 0.01 µM): 0.265
- relative viability ([4]; first compound 0.03162 µM): 0.261
- relative viability ([4]; first compound 0.1 µM): 0.242
- relative viability ([4]; first compound 1 µM): 0.267
- relative viability ([5]; first compound 0.01 µM): 0.323
- relative viability ([5]; first compound 0.03162 µM): 0.323
- relative viability ([5]; first compound 0.1 µM): 0.33
- relative viability ([5]; first compound 1 µM): 0.297

Cell Line: BEN
- relative viability ([1]; first compound 0.01 µM): 0.0464
- relative viability ([1]; first compound 0.03162 µM): 0.0561
- relative viability ([1]; first compound 0.1 µM): 0.0932
- relative viability ([1]; first compound 1 µM): 0.0522
- relative viability ([2]; first compound 0.01 µM): 0.755
- relative viability ([2]; first compound 0.03162 µM): 0.637
- relative viability ([2]; first compound 0.1 µM): 0.682
- relative viability ([2]; first compound 1 µM): 0.516
- relative viability ([3]; first compound 0.01 µM): 1.04
- relative viability ([3]; first compound 0.03162 µM): 1.05
- relative viability ([3]; first compound 0.1 µM): 1.04
- relative viability ([3]; first compound 1 µM): 0.735
- relative viability ([4]; first compound 0.01 µM): 0.668
- relative viability ([4]; first compound 0.03162 µM): 0.752
- relative viability ([4]; first compound 0.1 µM): 0.819
- relative viability ([4]; first compound 1 µM): 0.668
- relative viability ([5]; first compound 0.01 µM): 0.315
- relative viability ([5]; first compound 0.03162 µM): 0.339
- relative viability ([5]; first compound 0.1 µM): 0.344
- relative viability ([5]; first compound 1 µM): 0.368

Cell Line: NCI-H2347
- relative viability ([1]; first compound 0.01 µM): 0.797
- relative viability ([1]; first compound 0.03162 µM): 0.793
- relative viability ([1]; first compound 0.1 µM): 0.752
- relative viability ([1]; first compound 1 µM): 0.781
- relative viability ([2]; first compound 0.01 µM): 0.929
- relative viability ([2]; first compound 0.03162 µM): 0.878
- relative viability ([2]; first compound 0.1 µM): 0.988
- relative viability ([2]; first compound 1 µM): 0.885
- relative viability ([3]; first compound 0.01 µM): 0.491
- relative viability ([3]; first compound 0.03162 µM): 0.609
- relative viability ([3]; first compound 0.1 µM): 0.545
- relative viability ([3]; first compound 1 µM): 0.539
- relative viability ([4]; first compound 0.01 µM): 0.631
- relative viability ([4]; first compound 0.03162 µM): 0.623
- relative viability ([4]; first compound 0.1 µM): 0.64
- relative viability ([4]; first compound 1 µM): 0.529
- relative viability ([5]; first compound 0.01 µM): 0.296
- relative viability ([5]; first compound 0.03162 µM): 0.324
- relative viability ([5]; first compound 0.1 µM): 0.314
- relative viability ([5]; first compound 1 µM): 0.258

Cell Line: H3255
- relative viability ([1]; first compound 0.01 µM): 0.669
- relative viability ([1]; first compound 0.03162 µM): 0.574
- relative viability ([1]; first compound 0.1 µM): 0.485
- relative viability ([1]; first compound 1 µM): 0.218
- relative viability ([2]; first compound 0.01 µM): 0.835
- relative viability ([2]; first compound 0.03162 µM): 0.885
- relative viability ([2]; first compound 0.1 µM): 0.969
- relative viability ([2]; first compound 1 µM): 0.79
- relative viability ([3]; first compound 0.01 µM): 0.568
- relative viability ([3]; first compound 0.03162 µM): 0.56
- relative viability ([3]; first compound 0.1 µM): 0.598
- relative viability ([3]; first compound 1 µM): 0.421
- relative viability ([4]; first compound 0.03162 µM): 0.725
- relative viability ([4]; first compound 0.1 µM): 0.804
- relative viability ([4]; first compound 1 µM): 0.354
- relative viability ([5]; first compound 0.01 µM): 0.369
- relative viability ([5]; first compound 0.03162 µM): 0.381
- relative viability ([5]; first compound 0.1 µM): 0.364
- relative viability ([5]; first compound 1 µM): 0.288

Cell Line: NCI-H441
- relative viability ([1]; first compound 0.01 µM): 0.589
- relative viability ([1]; first compound 0.03162 µM): 0.599
- relative viability ([1]; first compound 0.1 µM): 0.411
- relative viability ([1]; first compound 1 µM): 0.518
- relative viability ([2]; first compound 0.01 µM): 1.03
- relative viability ([2]; first compound 0.03162 µM): 1.21
- relative viability ([2]; first compound 0.1 µM): 1.22
- relative viability ([2]; first compound 1 µM): 1.25
- relative viability ([3]; first compound 0.01 µM): 0.431
- relative viability ([3]; first compound 0.03162 µM): 0.562
- relative viability ([3]; first compound 0.1 µM): 0.755
- relative viability ([3]; first compound 1 µM): 0.678
- relative viability ([4]; first compound 0.01 µM): 0.24
- relative viability ([4]; first compound 0.03162 µM): 0.264
- relative viability ([4]; first compound 0.1 µM): 0.279
- relative viability ([4]; first compound 1 µM): 0.287
- relative viability ([5]; first compound 0.01 µM): 0.55
- relative viability ([5]; first compound 0.03162 µM): 0.667
- relative viability ([5]; first compound 0.1 µM): 0.676
- relative viability ([5]; first compound 1 µM): 0.848

Cell Line: NCI-H1975
- relative viability ([1]; first compound 0.01 µM): 1
- relative viability ([1]; first compound 0.03162 µM): 1.06
- relative viability ([1]; first compound 0.1 µM): 1.1
- relative viability ([1]; first compound 1 µM): 0.991
- relative viability ([2]; first compound 0.01 µM): 0.981
- relative viability ([2]; first compound 0.03162 µM): 0.975
- relative viability ([2]; first compound 0.1 µM): 0.977
- relative viability ([2]; first compound 1 µM): 0.841
- relative viability ([3]; first compound 0.01 µM): 0.71
- relative viability ([3]; first compound 0.03162 µM): 0.784
- relative viability ([3]; first compound 0.1 µM): 0.794
- relative viability ([3]; first compound 1 µM): 0.56
- relative viability ([4]; first compound 0.01 µM): 0.45
- relative viability ([4]; first compound 0.03162 µM): 0.369
- relative viability ([4]; first compound 0.1 µM): 0.398
- relative viability ([4]; first compound 1 µM): 0.371
- relative viability ([5]; first compound 0.01 µM): 0.343
- relative viability ([5]; first compound 0.03162 µM): 0.395
- relative viability ([5]; first compound 0.1 µM): 0.364
- relative viability ([5]; first compound 1 µM): 0.374
